Data: US20250003877A1, “Silyl Bridged Dyes” (priority 2021, published 2025)
Like-named read-outs stand apart in the source and are kept apart here.

Columns and labels:
[1] = literature values; cited from earlier work
[2] = for ϕ (quantum yield): pH 7.4
[3] = KL-Z lactone-zwitterion equilibrium; format: physicochemical; settings: 1:1 v/v dioxane:water
[4] = test system: HaloTag®-GFP-expressing HeLa cells; assay: No-wash live cell imaging of HaloTag-expressing cells with a Si-bridge dye; format: cell-based; settings: 200 nM dye, 15 min, 37° C., HeLa transfected with pHaloTag®-EGFP
Procedure: HeLa cells were seeded in 35 mm glass bottom dishes (Cellvis, catalog no. D35-28-O—N), and transfected with pHaloTag®-EGFP (Addgene #86629). Transient transfections were performed using Lipofectamine 2000 (Invitrogen, catalog no. 1168019) following the manufacturer's instructions. HeLa cell labeling and confocal imaging were performed 24 hr after transfection.
Labeling with JF646-HaloTag® ligand (Promega) and new dyes containing HaloTag® ligands were performed following the manufacturer's instructions. Briefly, cells were incubated with 200 nM dye in DMEM for 15 min at 37° C. Subsequently, images were obtained on a Leica SP-8 Confocal Microscope (SCOPE core facility, UMass Medical School), using a 40×1.15 Oil DIC objective. EGFP was excited with the Argon (488 nm) laser at a 15% intensity and detected through a 505-530 band pass filter and a pinhole set to 53.12 μm. Dyes fluorescing in the Cy5 channel were excited with the HeNe (633 nm) laser at a 15% intensity and detected through a 640-615 band pass filter and […] pinhole. Image analysis was performed using Leica LAS X SP8 software and ImageJ software.

[5] = spirolactone dyes, table title says PBS, text (b560-b564) says maximal ε when ring-opened in EtOH/0.1% TFA
[6] = spirolactone dyes, ϕ in PBS × ε in EtOH/0.1% TFA

SMILES: Cc1ccccc1C1=C2C=CC(=[N+](C)C)C=C2[Si](C)(C)c2cc(N(C)C)ccc21 [Compound 001, N-(7-(Dimethylamino)-5,5-dimethyl-10-(o-tolyl)dibenzo[b,e]silin-3(5H)-ylidene)-N-methylmethanaminium, reference compound]
- emission wavelength, literature value [1]: 658 nm
- excitation wavelength, literature value [1]: 644 nm
- ε, literature value [1]: 1.1×10^5
- ϕ, literature value [1]: 0.31
- Brightness (ϕ × ε) ([2]; PBS): 43,102
- Em (nm) ([2]; PBS): 663 nm
- Ex (nm) ([2]; PBS): 648 nm
- ε (M^−1 cm^−1) ([2]; PBS): 126,400 M^−1 cm^−1
- ϕ (quantum yield) ([2]; PBS): 0.34

SMILES: Cc1ccccc1C1=c2cc3c(cc2[Si](C)(C)c2cc4c(cc21)CCCN4C)=[N+](C)CCC3 [Compound 016, 1,11,13,13-Tetramethyl-6-(o-tolyl)-2,3,4,8,9,10,11,13-octahydrosilino[3,2-g:5,6-g′]diquinolin-1-ium, reference compound]
- emission wavelength, literature value [1]: 689 nm
- excitation wavelength, literature value [1]: 674 nm
- ε, literature value [1]: 1.3×10^5
- ϕ, literature value [1]: 0.35
- Brightness (ϕ × ε) [2]: 41,850
- Em (nm) [2]: 692 nm
- Ex (nm) [2]: 674 nm
- ε (M^−1 cm^−1) [2]: 135,000 M^−1 cm^−1
- ϕ (quantum yield) ([2]; PBS): 0.31

SMILES: Cc1ccccc1C1=c2cc3c(cc2[Si](C)(C)c2cc4c(cc21)CCN4C)=[N+](C)CC3 [Compound 020, 1,9,11,11-Tetramethyl-5-(o-tolyl)-2,3,7,8,9,11-hexahydrosilino[3,2-f:5,6-f]diindol-1-ium, reference compound]
- emission wavelength, literature value [1]: 712 nm
- excitation wavelength, literature value [1]: 691 nm
- ε, literature value [1]: 1.0×10^5
- ϕ, literature value [1]: 0.12
- Brightness (ϕ × ε) [2]: 17,000
- Em (nm) [2]: 715 nm
- Ex (nm) [2]: 690 nm
- ε (M^−1 cm^−1) [2]: 100,000 M^−1 cm^−1
- ϕ (quantum yield) ([2]; PBS): 0.17

SMILES: C[Si]1(C)c2cc(N3CCC3)ccc2C2(OC(=O)c3ccccc32)c2ccc(N3CCC3)cc21 [Compound 031, 3,7-Di(azetidin-1-yl)-5,5-dimethyl-3′H,5H-spiro[dibenzo[b,e]siline-10,1′-isobenzofuran]-3′-one, reference compound]
- KL-Z lactone-zwitterion equilibrium value [3]: 0.0034
- Em (nm) ([2]; PBS): 664 nm
- Ex (nm) ([2]; PBS): 646 nm
- ϕ (quantum yield) ([2]; PBS): 0.45
- ε (M^−1 cm^−1) [2, 5]: 156,000 M^−1 cm^−1
- Brightness (ϕ × ε) [2, 6]: 70,200

SMILES: CN(C)c1ccc2c(c1)[Si](C)(C)c1cc(N(C)C)ccc1C21OC(=O)c2ccccc21 [Compound 032, 3,7-Bis(dimethylamino)-5,5-dimethyl-3′H,5H-spiro[dibenzo[b,e]siline-10,1′-isobenzofuran]-3′-one, reference compound]
- KL-Z lactone-zwitterion equilibrium value [3]: 0.002
- Em (nm) ([2]; PBS): 667 nm
- Ex (nm) ([2]; PBS): 648 nm
- ϕ (quantum yield) ([2]; PBS): 0.38
- ε (M^−1 cm^−1) [2, 5]: 130,000 M^−1 cm^−1
- Brightness (ϕ × ε) [2, 6]: 49,400

SMILES: C=C[Si]1(C=C)c2cc(N3CCC3)ccc2C2(OC(=O)c3ccccc32)c2ccc(N3CCC3)cc21 [Compound 034, 3,7-Di(azetidin-1-yl)-5,5-divinyl-3′H,5H-spiro[dibenzo[b,e]siline-10,1′-isobenzofuran]-3′-one]
- KL-Z lactone-zwitterion equilibrium value [3]: 0.00125
- extinction coefficient (maximum) in EtOH/0.1% TFA ([2]; EtOH/0.1% TFA): 80,000 M−1 cm−1
- Em (nm) ([2]; SDS): 675 nm
- Ex (nm) ([2]; SDS): 656 nm
- extinction coefficient in anhydrous EtOH/0.1% TFA ([2]; anhydrous EtOH/0.1% TFA): ~144 000 M−1 cm-1
- ε (M^−1 cm^−1) [2, 5]: 80,000 M^−1 cm^−1

SMILES: CN(C)c1ccc2c(c1)[Si@](C)(CCCSCC(=O)NCCOCCOCCCCCCCl)c1cc(N(C)C)ccc1[C@]21OC(=O)c2ccccc21 [Compound 044, 2-((3-((5s,10s)-3,7-Bis(dimethylamino)-5-methyl-3′-oxo-3′H,5H-spiro[dibenzo[b,e]siline-10,1′-isobenzofuran]-5-yl)propyl)thio)-N-(2-(2-((6-chlorohexyl)oxy)ethoxy)ethyl)acetamide]
- fluorescence contrast / background / localisation in cells [4]: poorly fluorescent in all cells
- labeling of HaloTag®-expressing cells [4]: did not label HaloTag®-expressing cells

SMILES: CN(C)c1ccc2c(c1)[Si@](C)(CCCSCC(=O)NCCOCCOCCCCCCCl)c1cc(N(C)C)ccc1[C@@]21OC(=O)c2ccccc21 [Compound 045, 2-((3-((5r,10r)-3,7-Bis(dimethylamino)-5-methyl-3′-oxo-3′H,5H-spiro[dibenzo[b,e]siline-10,1′-isobenzofuran]-5-yl)propyl)thio)-N-(2-(2-((6-chlorohexyl)oxy)ethoxy)ethyl)acetamide]
- fluorescence contrast / background / localisation in cells [4]: bright high contrast images that correlated strongly to GFP expression

SMILES: COc1cccc(OC)c1C1=C2C=CC(=[N+](C)C)C=C2[Si@](C)(CCCSCCOCCOCCOCCOCCCCCCCl)c2cc(N(C)C)ccc21 [Compound 049, N-(5-(22-Chloro-7,10,13,16-tetraoxa-4-thiadocosyl)-10-(2,6-dimethoxyphenyl)-7-(dimethylamino)-5-methyldibenzo[b,e]silin-3(5H)-ylidene)-N-methylmethanaminium]
- fluorescence contrast / background / localisation in cells [4]: only stained mitochondria
- labeling of HaloTag®-expressing cells [4]: did not label HaloTag®-expressing cells

SMILES: CN(C)c1ccc2c(c1)[Si@](C)(CCCSCCOCCOCCOCCOCCCCCCCl)c1cc(N(C)C)ccc1[C@]21OC(=O)c2ccccc21 [Compound 050, (5s,10s)-5-(22-Chloro-7,10,13,16-tetraoxa-4-thiadocosyl)-3,7-bis(dimethylamino)-5-methyl-3′H,5H-spiro[dibenzo[b,e]siline-10,1′-isobenzofuran]-3′-one]
- fluorescence contrast / background / localisation in cells [4]: high background
- labeling of HaloTag®-expressing cells [4]: did not label HaloTag®-expressing cells

SMILES: CN(C)c1ccc2c(c1)[Si@](C)(CCCSCCOCCOCCOCCOCCCCCCCl)c1cc(N(C)C)ccc1[C@@]21OC(=O)c2ccccc21 [Compound 051, (5r,10r)-5-(22-Chloro-7,10,13,16-tetraoxa-4-thiadocosyl)-3,7-bis(dimethylamino)-5-methyl-3′H,5H-spiro[dibenzo[b,e]siline-10,1′-isobenzofuran]-3′-one]
- fluorescence contrast / background / localisation in cells [4]: significant background
- labeling of HaloTag®-expressing cells [4]: labeled HaloTag®-expressing cells

SMILES: CN(C)c1ccc2c(c1)[Si@](C)(CCCSCC(=O)O)c1cc(N(C)C)ccc1[C@@]21OC(=O)c2ccccc21 [Compound 064, 2-((3-((5r,10r)-3,7-Bis(dimethylamino)-5-methyl-3′-oxo-3′H,5H-spiro[dibenzo[b,e]siline-10,1′-isobenzofuran]-5-yl)propyl)thio)acetic acid]
- Em (nm) ([2]; PBS): 665 nm
- Ex (nm) ([2]; PBS): 645 nm
- ϕ (quantum yield) ([2]; PBS): 0.45
- ε (M^−1 cm^−1) [2, 5]: 160,400 M^−1 cm^−1

SMILES: C[Si]1(C)c2cc(N3CCC3)ccc2C2(OC(=O)c3ccc(C(=O)NCCOCCOCCCCCCCl)cc32)c2ccc(N3CCC3)cc21 [JF646-HaloTag® ligand]
- fluorescence contrast / background / localisation in cells [4]: high contrast images
